This passage reports IC50 results from US8063099B2, “Trans-3-aza-bicyclo[3.1.0]hexane derivatives” (Actelion Pharmaceuticals Ltd., priority 2007, dated 2011).

One assay has as its target T1, human orexin-2 receptor (Homo sapiens, UniProt O43614).
T1 construct: expressed in transfected cells; host or cells: Chinese hamster ovary (CHO) cells, G418 selection
T1 sequence (O43614 1-444): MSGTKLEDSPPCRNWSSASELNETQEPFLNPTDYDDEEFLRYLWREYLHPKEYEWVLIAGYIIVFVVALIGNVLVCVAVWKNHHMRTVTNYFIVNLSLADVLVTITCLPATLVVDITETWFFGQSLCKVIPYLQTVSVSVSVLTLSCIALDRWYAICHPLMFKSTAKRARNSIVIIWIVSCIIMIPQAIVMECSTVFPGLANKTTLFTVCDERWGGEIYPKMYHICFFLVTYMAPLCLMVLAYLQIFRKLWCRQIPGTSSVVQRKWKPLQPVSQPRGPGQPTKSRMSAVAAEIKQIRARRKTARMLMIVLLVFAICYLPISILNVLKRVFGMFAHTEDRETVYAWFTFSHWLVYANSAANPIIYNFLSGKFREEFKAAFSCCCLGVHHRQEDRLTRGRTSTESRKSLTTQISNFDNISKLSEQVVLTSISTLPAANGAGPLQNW
The experiment in a line: Intracellular calcium measurements (FLIPR), orexin receptor antagonistic activity. In kind it is cell-based. The conditions noted are these: FLIPR Tetra, CHO cells expressing human orexin-2 receptor, 3 nM orexin-A, read-out: OX2 IC50. On the procedure: (§1) The orexin receptor antagonistic activity of the compounds of formula (I) is determined in accordance with one of the following experimental methods.
(§2) Intracellular Calcium Measurements:
(§3) Chinese hamster ovary (CHO) cells expressing the human orexin-1 receptor and the human orexin-2 receptor, respectively, are grown in culture medium (Ham F-12 with L-Glutamine) containing 300 μg/ml G418, 100 U/ml penicillin, 100 μg/ml streptomycin and 10% heat inactivated fetal calf serum (FCS). The cells are seeded at 20'000 cells/well into 384-well black clear bottom sterile plates (Greiner). The seeded plates are incubated overnight at 37° C. in 5% CO2.
(§4) Human orexin-A as an agonist is prepared as 1 mM stock solution in MeOH:water (1:1), diluted in HBSS containing 0.1% bovine serum albumin (BSA), NaHCO3:0.375 g/l and 20 mM HEPES for use in the assay at a final concentration of 3 nM.
(§5) Antagonists are prepared as 10 mM stock solution in DMSO, then diluted in 384-well plates, first in DMSO, then in HBSS containing 0.1% bovine serum albumin (BSA), NaHCO3: 0.375 g/l and 20 mM HEPES.
(§6) On the day of the assay, 50 μl of staining buffer (HBSS containing 1% FCS, 20 mM HEPES, NaHCO3: 0.375 g/l, 5 mM probenecid (Sigma) and 3 μM of the fluorescent calcium indicator fluo-4 AM (1 mM stock solution in DMSO, containing 10% pluronic) is added to each well.
(§7) The 384-well cell-plates are incubated for 50 min at 37° C. in 5% CO2 followed by equilibration at RT for 30-120 min before measurement.
(§8) Within the Fluorescent Imaging Plate Reader (FLIPR2 or FLIPR Tetra, Molecular Devices), antagonists are added to the plate in a volume of 10 μl/well, incubated for 10 min and finally 10 μl/well of agonist is added. Fluorescence is measured for each well at 1 second intervals, and the height of each fluorescence peak is compared to the height of the fluorescence peak induced by 3 nM orexin-A with vehicle in place of antagonist. For each antagonist, the IC50 value (the concentration of compound needed to inhibit 50% of the agonistic response) is determined. With the FLIPR Tetra, non-optimized and optimized conditions were used. Optimized conditions were achieved by adjustment of pipetting speed and cell splitting regime. The calculated IC50 values of the compounds may fluctuate depending on the daily cellular assay performance. Fluctuations of this kind are known to those skilled in the art.
For orientation: A change in cytosolic calcium serves as a functional read-out for many receptors and channels.

The next assay addresses T2, human orexin-1 receptor (Homo sapiens, UniProt O43613).
T2 construct: expressed in transfected cells; host or cells: Chinese hamster ovary (CHO) cells, G418 selection
T2 sequence (O43613 1-425): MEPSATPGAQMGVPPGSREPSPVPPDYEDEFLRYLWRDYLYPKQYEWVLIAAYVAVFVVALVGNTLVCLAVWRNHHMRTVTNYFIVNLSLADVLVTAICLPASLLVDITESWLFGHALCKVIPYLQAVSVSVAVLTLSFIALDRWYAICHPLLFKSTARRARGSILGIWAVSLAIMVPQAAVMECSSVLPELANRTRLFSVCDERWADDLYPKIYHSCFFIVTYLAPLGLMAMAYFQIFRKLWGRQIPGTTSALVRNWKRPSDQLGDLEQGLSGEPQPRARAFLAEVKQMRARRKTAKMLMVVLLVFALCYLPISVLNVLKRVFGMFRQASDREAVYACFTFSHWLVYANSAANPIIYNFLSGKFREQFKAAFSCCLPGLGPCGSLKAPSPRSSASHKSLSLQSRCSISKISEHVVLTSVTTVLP
Described as above. It is filed as cell-based. The conditions noted are these: FLIPR Tetra, CHO cells expressing human orexin-1 receptor, 3 nM orexin-A, read-out: OX1 IC50. On the procedure: as §1, §2, §3, §4, §5, §6, §7, §8

The structures appear in SMILES notation. Where two headings read alike, the source gives them in different places.

As a reminder, the IC50 is the concentration that gives 50% inhibition. `CCn1nc(C)cc1C(=O)NC[C@@H]1[C@H]2C[C@H]2CN1C(=O)c1nc(C2CC2)sc1-c1cccc(C)c1` [Example 237, 2-Ethyl-5-methyl-2H-pyrazole-3-carboxylic acid [(1S,2S,5R)-3-(2-cyclopropyl-5-m-tolyl-thiazole-4-carbonyl)-3-aza-bicyclo[3.1.0]hex-2-ylmethyl]-amide]: the IC50 at human orexin-2 receptor (optimized conditions) came to 38 nM; at human orexin-1 receptor (optimized conditions), 29 nM.
`Cc1cccc(-c2sc(C)nc2C(=O)N2C[C@@H]3C[C@@H]3[C@H]2CNc2ncc(Br)cn2)c1` [Example 244, {(1S,2S,5R)-2-[(5-Bromo-pyrimidin-2-ylamino)-methyl]-3-aza-bicyclo[3.1.0]hex-3-yl}-(2-methyl-5-m-tolyl-thiazol-4-yl)-methanone]: the half-inhibitory concentration (IC50) worked out at 639 nM at human orexin-2 receptor (non-optimized conditions) and 51 nM at human orexin-1 receptor (non-optimized conditions).
Taken in the same sequence, the figures for `Cc1nc(C(=O)N2C[C@@H]3C[C@@H]3[C@H]2CNc2ncc(Br)cn2)c(-c2ccc(C)c(F)c2)s1` [Example 252, {(1S,2S,5R)-2-[(5-Bromo-pyrimidin-2-ylamino)-methyl]-3-aza-bicyclo[3.1.0]hex-3-yl}-[5-(3-fluoro-4-methyl-phenyl)-2-methyl-thiazol-4-yl]-methanone] were 350 nM and 79 nM.
On to `Cc1cccc(-c2sc(C)nc2C(=O)N2C[C@@H]3C[C@@H]3[C@H]2CNC(=O)c2cccc3nc(C)oc23)c1` [Example 256, 2-Methyl-benzoxazole-7-carboxylic acid [(1S,2S,5R)-3-(2-methyl-5-m-tolyl-thiazole-4-carbonyl)-3-aza-bicyclo[3.1.0]hex-2-ylmethyl]-amide], for which the IC50 was determined as 55 nM at human orexin-2 receptor (optimized conditions) and 64 nM at human orexin-1 receptor (optimized conditions).
Take `Cc1cccc(-c2sc(C)nc2C(=O)N2C[C@@H]3C[C@@H]3[C@H]2CNC(=O)c2ccn3ccsc23)c1` [Example 260, Pyrrolo[2,1-b]thiazole-7-carboxylic acid [(1S,2S,5R)-3-(2-methyl-5-m-tolyl-thiazole-4-carbonyl)-3-aza-bicyclo[3.1.0]hex-2-ylmethyl]-amide]: the half-inhibitory concentration (IC50) amounted to 31 nM on human orexin-2 receptor (optimized conditions) and 16 nM at human orexin-1 receptor (optimized conditions).
Taken in the same sequence, the figures for `Cc1ccc(-c2sccc2C(=O)N2C[C@@H]3C[C@@H]3[C@H]2CNC(=O)c2cccc3c2NCCO3)cc1` [Example 266, 3,4-Dihydro-2H-benzo[1,4]oxazine-5-carboxylic acid [(1S,2S,5R)-3-(2-p-tolyl-thiophene-3-carbonyl)-3-aza-bicyclo[3.1.0]hex-2-ylmethyl]-amide] were 19 nM and 65 nM.
Consider `Cc1ccc(-c2sccc2C(=O)N2C[C@@H]3C[C@@H]3[C@H]2CNC(=O)c2cccc3nsnc23)cc1` [Example 274, Benzo[2,1,3]thiadiazole-4-carboxylic acid [(1S,2S,5R)-3-(2-p-tolyl-thiophene-3-carbonyl)-3-aza-bicyclo[3.1.0]hex-2-ylmethyl]-amide], for which the IC50 on human orexin-2 receptor (optimized conditions) amounted to 55 nM; at human orexin-1 receptor (optimized conditions) it was 58 nM.
For the compound `Cc1cccc(-c2sccc2C(=O)N2C[C@@H]3C[C@@H]3[C@H]2CNC(=O)c2cc3occc3n2C)c1` [Example 282, 4-Methyl-4H-furo[3,2-b]pyrrole-5-carboxylic acid [(1S,2S,5R)-3-(2-m-tolyl-thiophene-3-carbonyl)-3-aza-bicyclo[3.1.0]hex-2-ylmethyl]-amide], the IC50 at human orexin-2 receptor (optimized conditions) amounted to 32 nM; at human orexin-1 receptor (optimized conditions) it was 117 nM.
Taken in the same sequence, the figures for `Cc1cccc(-c2sccc2C(=O)N2C[C@@H]3C[C@@H]3[C@H]2CNC(=O)c2cccc3oc(C)nc23)c1` [Example 297, 2-Methyl-benzoxazole-4-carboxylic acid [(1S,2S,5R)-3-(2-m-tolyl-thiophene-3-carbonyl)-3-aza-bicyclo[3.1.0]hex-2-ylmethyl]-amide] were 16 nM and 83 nM.
As to `Cc1cccc(-c2sc(C)nc2C(=O)N2C[C@@H]3C[C@@H]3[C@H]2CNC(=O)c2cccc3sc(Cl)nc23)c1` [Example 299, 2-Chloro-benzothiazole-4-carboxylic Acid[(1S,2S,5R)-3-(2-methyl-5-m-tolyl-thiazole-4-carbonyl)-3-aza-bicyclo[3.1.0]hex-2-ylmethyl]-amide], the figures for the IC50 on human orexin-2 receptor (optimized conditions) and on human orexin-1 receptor (optimized conditions) were 14 nM and 28 nM, respectively.
